Source: patent publication US20260373149A1, “MIXED LINEAGE KINASE DOMAIN LIKE PSEUDOKINASE (MLKL) ACTIVATORS” (Trustees of Tufts College, priority 2022, published 2026)
Substitutions are numbered along the chain they refer to.

What was measured:
Type in all cases: cell-based
[1] = target: T1, S345A/S347A mutant of MLKL (Mus musculus, UniProt Q9D2Y4, S345A/S347A); test: Viability of Mlkl-/- MEFs expressing S345A/S347A mutant of mouse MLKL-FLAG (CellTiter-Glo); conditions: 5 μM; 50 ng/ml Dox 6 hr, then 24 hr; FIG. 6
T1 sequence (Q9D2Y4 1-472 S345A/S347A): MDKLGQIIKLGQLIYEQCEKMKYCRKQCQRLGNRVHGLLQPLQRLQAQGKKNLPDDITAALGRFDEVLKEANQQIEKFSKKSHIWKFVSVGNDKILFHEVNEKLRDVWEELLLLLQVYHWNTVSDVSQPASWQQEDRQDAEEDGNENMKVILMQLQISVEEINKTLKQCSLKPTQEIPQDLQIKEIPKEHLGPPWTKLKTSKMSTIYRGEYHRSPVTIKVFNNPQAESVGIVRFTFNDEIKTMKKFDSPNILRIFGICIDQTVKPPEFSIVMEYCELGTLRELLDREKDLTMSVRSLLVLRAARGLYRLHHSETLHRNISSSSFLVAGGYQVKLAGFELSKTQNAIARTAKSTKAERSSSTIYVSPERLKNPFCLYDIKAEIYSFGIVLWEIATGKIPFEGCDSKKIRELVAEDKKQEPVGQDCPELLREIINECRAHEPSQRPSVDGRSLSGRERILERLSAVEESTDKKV
Method: (§1) Plots show cell viability (%) versus MLKL mutant expressed. […] Cells conditionally expressing wild type and mutants of MLKL have been generated. M272W mutant of MLKL is active but predicted not to bind to MLKL activators. S345A/S347A mutant of MLKL lacks RIPK3 phosphorylation sites. Cells were treated with 50 ng/ml of Dox for 6 hr followed by MLKL activators (left panels) or TNFα/IDN6556 (right panels). The latter combination is a canonical inducer of necroptosis through RIPK3 activation. 5 μM ALD-6-85 and SS-1-127 were used in top and bottom panels, respectively.
(§2) The activity of ALD-6-85 was tested in the cells expressing either wild type MLKL or mutant expressing a bulky Trp residue in place of M272 gatekeeper residue. This mutation is expected to disrupt binding of the drug to MLKL. […] To ensure that observed reduction in killing is not due to the intrinsically lower pro-death activity of M272W mutant, cells were also stimulated with TNF+IDN, inducing necroptosis through a canonical TNFR1-RIPK1-RIPK3-MLKL pathway. […] We also generated MEFs expressing S345A, S347A double mutant of mouse MLKL.

[2] = tested on: transformed mouse embryonic fibroblasts with genetic deletions of RIPK3 and MLKL genes; test: Viability of transformed mouse embryonic fibroblasts with genetic deletions of RIPK3 and MLKL genes; conditions: MEFs with genetic deletions of RIPK3 and MLKL; FIG. 3
Method: Viability of transformed mouse embryonic fibroblasts with genetic deletions of RIPK3 and MLKL genes and treated with SS-1-127 are shown. Affinities of select MLKL activators against recombinant human RIPK1, RIPK3, and MLKL were determined by DiscoveRx.
The compounds described herein are capable of directly activating the downstream executioner of necroptosis, MLKL, thus bypassing a requirement for RIPK3 (FIG. 2).

[3] = target: T2, E239Q mutant of mouse MLKL (Mus musculus, UniProt Q9D2Y4, E239Q); test: Viability of Mlkl-/- MEFs expressing wild type or E239Q mutant of mouse MLKL-FLAG (CellTiter-Glo); conditions: E239Q vs wild type mouse MLKL; 50 ng/ml Dox 6 hr, then compound 24 hr; FIG. 7
T2 construct: expressed in transfected cells; host or cells: Mlkl-/- mouse embryonic fibroblasts (MEFs), lentiviral, doxycycline-inducible
T2 sequence (Q9D2Y4 1-472 E239Q): T1 sequence (Q9D2Y4 1-472 S345A/S347A) with E239Q, A345S, A347S
Method: Mlkl^−/− mouse embryonic fibroblasts (MEFs) were stably infected with lentiviral vector encoding wild type and E239Q mutant of mouse MLKL-FLAG under the control of the Doxocyclin (Dox)-inducible promoter. […] After 24 hr, cell viability at the end of treatment was determined using CellTiter-Glo Viability assay (Promega).

[4] = target: T3, M272W mutant of MLKL (Mus musculus, UniProt Q9D2Y4, M272W); test: Viability of Mlkl-/- MEFs expressing M272W mutant of mouse MLKL-FLAG (CellTiter-Glo); conditions: 5 μM; 50 ng/ml Dox 6 hr, then 24 hr; FIG. 6
T3 sequence (Q9D2Y4 1-472 M272W): T1 sequence (Q9D2Y4 1-472 S345A/S347A) with M272W, A345S, A347S
Method: as §1, §2

Question: Which results are given for `CCN(CC)CCOc1ccc(Nc2ncc3cc(-c4ccc(O)c(C#N)c4)c(=O)n(C)c3n2)cc1` [SS-1-127, 5-(2-((4-(2-(Diethylamino)ethoxy)phenyl)amino)-8-methyl-7-oxo-7,8-dihydropyrido[2,3-d]pyrimidin-6-yl)-2-hydroxybenzonitrile]?
Answer: Effect of S345A, S347A double mutation on killing by SS-1-127 [1]: minor effect on killing; Cell death induced by SS-1-127: dependence on MLKL and RIPK3 [2]: dependent on MLKL expression and independent from RIPK3; Activity / cell death with E239Q mutation compared to wild type MLKL [3]: much improved activity when combined with E239Q mutation compared to wild type MLKL

Question: With `CCN(CC)CCOc1ccc(Nc2ncc3cc(-c4ccc(O)c([N+](=O)[O-])c4)c(=O)n(C)c3n2)cc1` [ALD-6-85] as the compound, how does the “Death in cells expressing M272W MLKL compared to wild type” value [4] read?
Answer: Its value is “induces reduced death in the cells expressing M272W MLKL compared to wild type protein”.
